US20080014614A1, “Labeling of rapamycin using rapamycin-specific methylases” (Wyeth, priority 2004, published 2008)

Tested on: RapM methylase
Assay: In vitro methylation of desmethyl-rapamycin substrates by recombinant RapM methylase crude extract, HPLC analysis
Format: biochemical, Streptomyces hygroscopicus
Details: recombinant E. coli cell extract, SAM as methyl donor, phosphate buffer pH 7.5, HPLC chromatograms
Experimental: The RapI, RapM and RapQ proteins were then expressed in E. coli strain BL21(DE3) cells using the Novagen pET24 inducible plasmid expression vector. In this vector, cloned genes are expressed from a T7 promoter by T7 RNA polymerase, and expression is activated by IPTG addition.
For crude extracts of the cloned methylase proteins, 25 mL cultures of induced cells were collected by centrifugation and the pellets frozen. The pellets were resuspended in 10 mL 50 mM potassium phosphate buffer, pH 7.5, containing 1 mM β-mercaptoethanol. Thereafter, lysozyme was added to a final concentration of 100 μg/ml and Benzonase™ nuclease was added (1 μL/mL cells). Cells were sonicated for 1 to 2 min on ice and cell debris was removed by centrifugation at ˜30,000×g, 4° C. for 15 min. Supernatants were adjusted to ˜10% glycerol prior to freezing at −70° C.
Approximately 65 μL of crude methylase extract was added to a reaction containing 3 μL of 1 mg/mL 7-desmethyl- rapamycin (7-dmr) solution, 5 μL of 4 mM SAM, 4 μL of 0.1 M MgSO4, and 23 μL of a 0.5 M phosphate buffer, adjusted to pH 7.5. Methylation reactions using the recombinant cell extracts were carried out as described above, except that 50 μL of extract and 38 μL of buffer were used.

Row | Compound | Conversion of the desmethyl-rapamycin substrate to rapamycin by RapM methylase (substrate specificity)
1 | CO[C@@H]1C[C@H](C[C@@H](C)[C@@H]2CC(=O)[C@H](C)/C=C(\C)[C@@H](O)[C@@H](OC)C(=O)[C@H](C)C[C@H](C)\C=C/C=C/C=C(\C)[C@@H](O)C[C@@H]3CC[C@@H](C)[C@@](O)(O3)C(=O)C(=O)N3CCCC[C@H]3C(=O)O2)CC[C@H]1O [7-dmr, 7-O-desmethyl-rapamycin] | generated rapamycin
2 | 32-O-desmethyl-rapamycin [32-dmr] | did not modify
